Reference: US20220111044A1, “WHOLE CELL TUMOR VACCINES AND METHODS OF USE THEROF” (CHILDREN'S NATIONAL MEDICAL CENTER, priority 2019, published 2022)

How the values were obtained:
[1] = test system: PD-L1 on Neuro2a and AgN2a cells; assay: PD-L1 surface expression after IFNγ stimulation, mouse neuroblastoma cell lines (flow cytometry); assay type: cell-based
Excerpt: (§1) The expression of PD-L1 on human neuroblastoma cell lines SY5Y and SK-N-SH (non-NMYC amplified) had similar changes with exposure to IFNγ. […] Representative tumors were dissected from naïve mice (I, V, IX, and XIII) and from mice after receipt of Id2kd vaccine (II, VI, X, and XIV), Id2kd plus PD-L1 antibody (III, VII, XI, and XV), and Id2kd plus CTLA-4 antibody (IV, VIII, XII, and XVI). Hematoxylin and eosin (H&E) staining (I±VIII) and immunofluorescence double staining (IX-XVI) for CD3 and PD-L1 were performed. The nuclei were stained with 4′,6-diamidino-2-phenylindole (DAPI). Representative micrographs from each cohort are shown. Areas of necrotic tissues are marked with black broken lines and coincide with areas of inflammatory cell infiltrates. […]
(§2) FIGS. 5A and 5B show PD-L1 is expressed at 3.7-fold-lower levels on aggressive mouse neuroblastoma cell line AgN2a, as evidenced by flow cytometry (FIG. 5A) and real-time quantitative PCR (RT-qPCR) (p<0.005, Student t test; FIG. 5B). […]
Cells from mouse tumor digests and mouse splenocytes were stained with the fluorescently conjugated antibodies described above. […] Data were analyzed using the FlowJo program (Treestar, Ashland, Oreg.). […]
(§3) A possible explanation may be the differential constitutive expression of PD-L1 by tumor cells. […] The response of PD-L1 expression to IFNγ stimulation was also determined.

[2] = test system: PD-L1 on SK-N-SH, SH-SY5Y and IMR-32 cells; assay: PD-L1 expression after IFNγ stimulation, human neuroblastoma cell lines; assay type: cell-based
Excerpt: as §1, with “infiltrates. Panel 1 (I-IV) and panel 3 (IX-XII) are 40× and 100× original magnification, respectively.” for “infiltrates.”
as §2, §3

[3] = test system: ApoE; assay: IFNγ ELISA of splenocytes cocultured with Myc-suppressed irradiated B16 cells with ApoE agonist or anti-ApoE antibody; assay type: cell-based, mouse
Procedure: IFNγ was measured at 48 hours of culture (pg/ml). S: splenocytes; NS: naïve splenocytes; VS: vaccinated splenocytes; S1S: splenocytes dissected from survivor mouse; Treated: B16 cells expose to 0.25 μM BET/0.25 μM JQ1 for 4 days.
IFNγ production was quantified by ELISA at 48 hours.

Substance	PD-L1 up-regulation ([1]; AgN2a, highest concentrations tested)	PD-L1 surface expression ([1]; Neuro2a, 24 hours of stimulation)	PD-L1 up-regulation ([2]; MYCN-amplified IMR-32, highest concentrations tested)	PD-L1 expression ([2]; SK-N-SH and SH-SY5Y (non-MYCN amplified), increasing doses)	IFNγ production, fold reduction ([3]; 0.3, 3 and 9 μM, 48 hours, ELISA, FIG. 10A)	IFNγ secretion from splenocytes ([3]; 48 hours of culture, FIGS. 10A and 10B)	TNFα and Rantes production ([3]; co-culture with vaccinated splenocytes)
IFNγ	failed to up-regulate PD-L1	increase in a dose-dependent manner	failed to up-regulate PD-L1	rises markedly			
LRVRLASHLRKLRKRLL (SEQ ID NO: 1) (COG133) [ApoE agonist peptide fragment]					6 fold reduction	significantly suppressed in a dose dependent manner	repressed
